Data: ChEMBL document CHEMBL3797047, “Discovery of indirubin derivatives as new class of DRAK2 inhibitors from high throughput screening” (Bioorg Med Chem Lett, 2016)
pIC50, pKi: −log10 of the molar value.

Columns and labels:
[1] = target: T1, Serine/threonine-protein kinase 17B (Homo sapiens, UniProt O94768); assay: Inhibition of DRAK2 (unknown origin) using MRLC3 peptide as substrate incubated for 2 hrs by ADP-Glo kinase assay
T1 sequence (O94768 whole entry): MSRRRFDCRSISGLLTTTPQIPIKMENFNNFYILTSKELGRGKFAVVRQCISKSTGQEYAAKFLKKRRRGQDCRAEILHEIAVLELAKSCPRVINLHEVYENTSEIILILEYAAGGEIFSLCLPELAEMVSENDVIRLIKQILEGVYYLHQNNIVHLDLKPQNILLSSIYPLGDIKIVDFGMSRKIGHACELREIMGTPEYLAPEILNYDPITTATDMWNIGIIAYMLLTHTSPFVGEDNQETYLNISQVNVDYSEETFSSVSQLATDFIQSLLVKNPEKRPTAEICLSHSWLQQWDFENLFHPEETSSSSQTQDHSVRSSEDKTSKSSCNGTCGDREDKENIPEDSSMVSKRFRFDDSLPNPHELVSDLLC

[2] = target: Death-associated protein kinase 1 (Homo sapiens, UniProt P53355); assay: Inhibition of DAPK1 (unknown origin)
Sequence of Death-associated protein kinase 1 (P53355 whole entry): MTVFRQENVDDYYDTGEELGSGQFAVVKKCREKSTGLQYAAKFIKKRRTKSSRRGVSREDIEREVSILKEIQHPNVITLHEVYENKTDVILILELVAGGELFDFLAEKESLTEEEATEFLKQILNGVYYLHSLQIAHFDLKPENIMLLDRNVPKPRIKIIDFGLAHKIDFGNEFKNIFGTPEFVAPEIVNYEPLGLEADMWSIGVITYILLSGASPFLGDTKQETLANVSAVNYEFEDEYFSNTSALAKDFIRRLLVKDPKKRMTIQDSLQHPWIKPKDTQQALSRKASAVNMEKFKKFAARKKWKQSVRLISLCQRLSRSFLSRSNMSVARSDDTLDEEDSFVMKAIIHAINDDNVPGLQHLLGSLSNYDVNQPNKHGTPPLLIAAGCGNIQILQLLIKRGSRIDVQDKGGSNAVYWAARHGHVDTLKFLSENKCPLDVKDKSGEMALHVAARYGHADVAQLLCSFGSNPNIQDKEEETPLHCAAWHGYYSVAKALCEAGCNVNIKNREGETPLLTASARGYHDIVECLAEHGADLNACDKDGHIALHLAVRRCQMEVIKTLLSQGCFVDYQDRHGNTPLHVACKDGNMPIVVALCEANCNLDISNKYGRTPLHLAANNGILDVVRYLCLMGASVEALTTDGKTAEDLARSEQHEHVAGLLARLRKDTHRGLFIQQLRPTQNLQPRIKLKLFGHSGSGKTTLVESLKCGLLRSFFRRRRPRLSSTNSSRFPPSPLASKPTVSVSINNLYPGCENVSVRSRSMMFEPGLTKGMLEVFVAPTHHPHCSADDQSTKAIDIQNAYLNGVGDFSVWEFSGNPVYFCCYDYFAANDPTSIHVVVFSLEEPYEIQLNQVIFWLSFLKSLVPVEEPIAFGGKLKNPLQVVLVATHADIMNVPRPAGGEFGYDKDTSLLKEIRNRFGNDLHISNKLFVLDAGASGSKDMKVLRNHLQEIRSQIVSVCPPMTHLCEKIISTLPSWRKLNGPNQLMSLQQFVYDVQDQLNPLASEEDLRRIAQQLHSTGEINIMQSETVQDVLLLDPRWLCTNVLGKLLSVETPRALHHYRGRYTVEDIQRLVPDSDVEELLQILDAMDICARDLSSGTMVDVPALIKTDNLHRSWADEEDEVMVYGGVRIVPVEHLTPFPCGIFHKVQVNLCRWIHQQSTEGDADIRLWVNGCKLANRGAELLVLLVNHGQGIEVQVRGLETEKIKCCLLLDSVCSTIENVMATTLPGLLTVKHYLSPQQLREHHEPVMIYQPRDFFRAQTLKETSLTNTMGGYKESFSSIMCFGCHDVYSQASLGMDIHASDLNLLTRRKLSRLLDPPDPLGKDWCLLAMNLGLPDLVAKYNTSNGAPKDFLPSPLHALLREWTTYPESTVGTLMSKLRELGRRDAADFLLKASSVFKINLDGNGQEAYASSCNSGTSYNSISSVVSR

[3] = target: Death-associated protein kinase 2 (Homo sapiens, UniProt Q9UIK4); assay: Inhibition of DAPK2 (unknown origin)
Sequence of Death-associated protein kinase 2 (Q9UIK4 whole entry): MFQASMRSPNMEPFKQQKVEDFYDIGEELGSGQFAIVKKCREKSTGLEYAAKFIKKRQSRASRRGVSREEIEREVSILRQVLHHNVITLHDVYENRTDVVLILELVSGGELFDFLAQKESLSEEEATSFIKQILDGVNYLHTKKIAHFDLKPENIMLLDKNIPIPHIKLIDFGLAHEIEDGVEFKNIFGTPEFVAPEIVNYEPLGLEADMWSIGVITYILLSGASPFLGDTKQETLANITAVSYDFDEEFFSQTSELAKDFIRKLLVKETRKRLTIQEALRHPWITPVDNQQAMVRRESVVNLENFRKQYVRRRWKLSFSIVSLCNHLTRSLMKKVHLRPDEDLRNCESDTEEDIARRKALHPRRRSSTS

[4] = target: Death-associated protein kinase 3 (Homo sapiens, UniProt O43293); assay: Inhibition of DAPK3 (unknown origin)
Sequence of Death-associated protein kinase 3 (O43293 whole entry): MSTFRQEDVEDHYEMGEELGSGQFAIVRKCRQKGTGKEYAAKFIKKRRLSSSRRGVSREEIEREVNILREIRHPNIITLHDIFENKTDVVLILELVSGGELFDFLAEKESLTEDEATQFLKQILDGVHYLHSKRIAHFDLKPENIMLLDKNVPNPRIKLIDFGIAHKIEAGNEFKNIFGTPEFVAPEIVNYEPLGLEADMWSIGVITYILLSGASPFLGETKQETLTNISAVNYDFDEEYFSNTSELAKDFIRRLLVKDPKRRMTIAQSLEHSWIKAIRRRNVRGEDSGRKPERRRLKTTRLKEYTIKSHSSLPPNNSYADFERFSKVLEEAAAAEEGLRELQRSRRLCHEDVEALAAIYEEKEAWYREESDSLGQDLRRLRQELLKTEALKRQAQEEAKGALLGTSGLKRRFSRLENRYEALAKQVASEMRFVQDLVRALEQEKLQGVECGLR

[5] = target: T2, Serine/threonine-protein kinase 17A (Homo sapiens, UniProt Q9UEE5); assay: Inhibition of DRAK1 (unknown origin)
T2 sequence (Q9UEE5 whole entry): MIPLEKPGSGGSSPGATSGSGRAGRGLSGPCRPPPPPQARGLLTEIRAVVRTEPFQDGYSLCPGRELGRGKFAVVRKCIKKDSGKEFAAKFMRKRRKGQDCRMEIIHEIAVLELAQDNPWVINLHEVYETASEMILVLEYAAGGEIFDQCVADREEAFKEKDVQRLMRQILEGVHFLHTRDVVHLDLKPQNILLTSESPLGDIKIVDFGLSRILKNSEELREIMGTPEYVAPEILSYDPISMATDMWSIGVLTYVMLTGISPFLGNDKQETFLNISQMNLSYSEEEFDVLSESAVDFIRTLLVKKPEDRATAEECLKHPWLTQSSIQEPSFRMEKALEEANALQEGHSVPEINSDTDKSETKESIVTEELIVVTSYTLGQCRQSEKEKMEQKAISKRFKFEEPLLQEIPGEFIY

[6] = target: Hepatocyte growth factor receptor (Homo sapiens, UniProt P08581); assay: Inhibition of c-MET (unknown origin) using peptide substrate incubated for 30 mins by europium donor dye-based plate reader analysis
Sequence of Hepatocyte growth factor receptor (P08581 whole entry): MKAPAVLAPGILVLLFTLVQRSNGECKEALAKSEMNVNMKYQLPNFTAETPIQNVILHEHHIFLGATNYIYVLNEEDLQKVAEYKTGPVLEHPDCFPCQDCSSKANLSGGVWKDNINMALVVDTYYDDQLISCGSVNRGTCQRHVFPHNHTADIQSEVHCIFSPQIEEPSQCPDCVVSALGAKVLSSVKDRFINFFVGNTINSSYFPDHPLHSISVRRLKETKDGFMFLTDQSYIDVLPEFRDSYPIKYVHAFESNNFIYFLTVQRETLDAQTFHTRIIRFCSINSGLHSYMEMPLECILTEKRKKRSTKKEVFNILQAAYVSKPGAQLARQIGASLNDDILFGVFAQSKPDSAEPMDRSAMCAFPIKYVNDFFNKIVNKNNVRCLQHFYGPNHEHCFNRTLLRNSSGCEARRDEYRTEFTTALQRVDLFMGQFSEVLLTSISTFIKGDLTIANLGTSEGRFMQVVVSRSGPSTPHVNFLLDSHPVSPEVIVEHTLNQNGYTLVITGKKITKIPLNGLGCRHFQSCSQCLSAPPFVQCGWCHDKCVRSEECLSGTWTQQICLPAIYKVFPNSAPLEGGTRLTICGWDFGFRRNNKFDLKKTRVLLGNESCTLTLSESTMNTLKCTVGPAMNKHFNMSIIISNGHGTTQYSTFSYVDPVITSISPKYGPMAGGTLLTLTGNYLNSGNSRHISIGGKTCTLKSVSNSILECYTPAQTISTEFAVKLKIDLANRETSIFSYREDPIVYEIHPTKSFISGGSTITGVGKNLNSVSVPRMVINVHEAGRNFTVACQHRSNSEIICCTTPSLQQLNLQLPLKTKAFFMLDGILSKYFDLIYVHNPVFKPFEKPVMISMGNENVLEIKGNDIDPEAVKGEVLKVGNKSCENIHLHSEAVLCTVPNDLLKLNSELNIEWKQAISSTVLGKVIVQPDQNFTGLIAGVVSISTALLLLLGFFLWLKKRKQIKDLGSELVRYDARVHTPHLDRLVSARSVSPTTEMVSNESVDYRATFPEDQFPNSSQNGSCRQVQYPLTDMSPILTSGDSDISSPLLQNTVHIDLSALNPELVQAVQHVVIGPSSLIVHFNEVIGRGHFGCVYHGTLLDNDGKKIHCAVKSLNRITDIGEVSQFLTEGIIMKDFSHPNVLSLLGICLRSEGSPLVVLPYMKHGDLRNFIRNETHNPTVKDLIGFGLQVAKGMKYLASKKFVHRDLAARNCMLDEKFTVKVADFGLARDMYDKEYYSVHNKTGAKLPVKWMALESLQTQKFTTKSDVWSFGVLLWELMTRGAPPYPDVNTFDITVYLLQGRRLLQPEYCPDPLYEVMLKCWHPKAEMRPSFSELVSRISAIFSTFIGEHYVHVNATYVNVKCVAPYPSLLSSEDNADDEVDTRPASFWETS

Insulin receptor = Insulin receptor (Homo sapiens, UniProt P06213); assay: Inhibition of IRK (unknown origin) using peptide substrate incubated for 30 mins by europium donor dye-based plate reader analysis
[7] = target: T3, Epidermal growth factor receptor (Homo sapiens, UniProt P00533); assay: Inhibition of EGFR (unknown origin) using peptide substrate incubated for 30 mins by europium donor dye-based plate reader analysis
[8] = target: T1, Serine/threonine-protein kinase 17B; assay: Competitive inhibition of DRAK2 (unknown origin) using MRLC3 peptide as substrate incubated for 2 hrs by Lineweaver-Burk plot analysis in presence of ATP
Activated CDC42 kinase 1 = Activated CDC42 kinase 1 (Homo sapiens, UniProt Q07912); assay: Inhibition of AcK1 (unknown origin) using peptide substrate incubated for 30 mins by europium donor dye-based plate reader analysis
Sequence of Activated CDC42 kinase 1 (Q07912 whole entry): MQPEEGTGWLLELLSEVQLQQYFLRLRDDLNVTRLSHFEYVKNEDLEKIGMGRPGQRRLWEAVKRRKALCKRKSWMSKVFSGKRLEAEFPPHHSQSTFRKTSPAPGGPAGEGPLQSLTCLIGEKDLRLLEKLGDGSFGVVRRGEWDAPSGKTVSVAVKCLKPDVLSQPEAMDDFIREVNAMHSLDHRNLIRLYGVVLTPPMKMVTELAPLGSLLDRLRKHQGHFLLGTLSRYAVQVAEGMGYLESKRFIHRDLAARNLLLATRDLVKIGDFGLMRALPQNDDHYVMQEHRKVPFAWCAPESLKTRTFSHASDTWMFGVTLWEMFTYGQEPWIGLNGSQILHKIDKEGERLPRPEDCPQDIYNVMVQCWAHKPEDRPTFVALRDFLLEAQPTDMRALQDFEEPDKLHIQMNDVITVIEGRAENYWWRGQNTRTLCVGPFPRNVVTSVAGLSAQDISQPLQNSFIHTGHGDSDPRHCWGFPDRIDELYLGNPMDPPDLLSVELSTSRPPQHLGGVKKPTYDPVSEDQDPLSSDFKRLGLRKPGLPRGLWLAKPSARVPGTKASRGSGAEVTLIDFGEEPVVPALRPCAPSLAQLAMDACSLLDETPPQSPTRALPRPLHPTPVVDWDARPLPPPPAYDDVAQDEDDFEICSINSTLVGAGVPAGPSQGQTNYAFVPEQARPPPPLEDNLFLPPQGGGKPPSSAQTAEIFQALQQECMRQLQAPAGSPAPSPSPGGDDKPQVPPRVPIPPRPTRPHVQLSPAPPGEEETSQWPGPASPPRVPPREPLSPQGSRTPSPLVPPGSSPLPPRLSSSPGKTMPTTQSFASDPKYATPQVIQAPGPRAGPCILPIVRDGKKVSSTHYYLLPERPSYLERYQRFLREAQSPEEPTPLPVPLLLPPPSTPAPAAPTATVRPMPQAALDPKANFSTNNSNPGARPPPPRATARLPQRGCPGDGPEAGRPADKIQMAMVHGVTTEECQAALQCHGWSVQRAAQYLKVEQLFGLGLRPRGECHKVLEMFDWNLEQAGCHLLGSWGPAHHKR

[9] = target: ALK tyrosine kinase receptor (Homo sapiens, UniProt Q9UM73); assay: Inhibition of ALK (unknown origin) using peptide substrate incubated for 30 mins by europium donor dye-based plate reader analysis
[10] = target: T3, Epidermal growth factor receptor; assay: Inhibition of EGFR (746 to 750) deletion mutant (unknown origin) using peptide substrate incubated for 30 mins by europium donor dye-based plate reader analysis; type: protein assay
[11] = target: Maternal embryonic leucine zipper kinase (Homo sapiens, UniProt Q14680); assay: Inhibition of MELK (unknown origin) using peptide substrate incubated for 30 mins by europium donor dye-based plate reader analysis

`O=C1Nc2ccc(F)cc2/C1=C1/Nc2ccccc2C1=O` showed a pIC50 [1] of under 5.00.

`O=C1Nc2ccc(F)cc2/C1=C1/Nc2ccccc2/C1=N\O` showed a pIC50 [1] of 6.21.

Molecule `O=C1Nc2ccc(I)cc2/C1=C1/Nc2ccccc2C1=O` has a pIC50 [1] of 5.21.

For `Cc1ccc2c(c1)/C(=C1/Nc3ccccc3C1=O)C(=O)N2`, the pIC50 [1] was under 5.00.

With `O=C1Nc2ccc(Cl)cc2/C1=C1/Nc2ccccc2C1=O` the pIC50 [1] was under 5.00.

With `Cc1cc(Cl)cc2c1NC(=O)/C2=C1\Nc2ccccc2\C1=N/O` the pIC50 [1] was under 5.00.

`O=C1Nc2ccccc2/C1=C1/Nc2ccccc2/C1=N\O` was tested, and the pIC50 [1] was 6.15.

In the case of `CC(C)=CC(=O)Nc1ccc2c(c1)/C(=C1/Nc3ccccc3/C1=N\O)C(=O)N2`, the pIC50 [1] was 7.85, the pIC50 [2] was 6.35 and the pIC50 [3] was 6.24. It also gave a pIC50 [4] of 6.35 and a pIC50 [5] of 6.92.

Work on `CCCCC(=O)Nc1ccc2c(c1)/C(=C1/Nc3ccccc3/C1=N\O)C(=O)N2` yielded a pIC50 [6] of under 5.00, a pIC50 [1] of 8.52 and a pIC50 (Insulin receptor) of under 5.00. The pIC50 [7] was under 5.00, the pIC50 [2] was 5.74 and the pIC50 [3] was 5.64. It also gave a pKi [8] of 9.59, a pIC50 [4] of 5.74 and a pIC50 (Activated CDC42 kinase 1) of under 5.00. It also gave a pIC50 [9] of under 5.00, a pIC50 [10] of under 5.00 and a pIC50 [5] of 7.29. The pIC50 [11] was under 5.00.

With `COc1ccc(C(=O)Nc2ccc3c(c2)/C(=C2/Nc4ccccc4/C2=N\O)C(=O)N3)cc1` the pIC50 [1] was 6.48 and the pIC50 [5] was 6.44.

In the case of `O=C1Nc2ccc(NC(=O)c3ccc(Cl)cc3)cc2/C1=C1/Nc2ccccc2/C1=N\O`, the pIC50 [1] was 5.49 and the pIC50 [5] was 5.52.

Work on `O=C1Nc2ccc(NC(=O)c3ccccc3)cc2/C1=C1/Nc2ccccc2/C1=N\O` yielded a pIC50 [1] of 6.70 and a pIC50 [5] of 6.44.

With `O=C1Nc2ccc(NC(=O)c3ccccc3F)cc2/C1=C1/Nc2ccccc2/C1=N\O` the pIC50 [1] was 6.54 and the pIC50 [5] was 6.60.

Molecule `O=C1Nc2ccc(NC(=O)c3cc([N+](=O)[O-])cc([N+](=O)[O-])c3)cc2/C1=C1/Nc2ccccc2/C1=N\O` has a pIC50 [1] of 7.11 and a pIC50 [5] of 7.62.

Work on `O=C1Nc2ccc(NC(=O)C3CCCCC3)cc2/C1=C1/Nc2ccccc2/C1=N\O` yielded a pIC50 [1] of 6.92 and a pIC50 [5] of 6.96.

For `O=C1Nc2ccccc2/C1=C1/Nc2cccc(Br)c2C1=O`, the pIC50 [1] was under 5.00.

With `O=C1Nc2ccc(NC(=O)c3ccccc3C(F)(F)F)cc2/C1=C1/Nc2ccccc2/C1=N\O` the pIC50 [1] was 6.92 and the pIC50 [5] was 6.49.

With `O=C(/C=C/c1ccccc1)Nc1ccc2c(c1)/C(=C1/Nc3ccccc3/C1=N\O)C(=O)N2` the pIC50 [1] was 6.15 and the pIC50 [5] was 5.96.

`O=C1Nc2ccc(NC(=O)c3ccc(F)cc3)cc2/C1=C1/Nc2ccccc2/C1=N\O` showed a pIC50 [1] of 5.92 and a pIC50 [5] of 6.11.

For `Cc1ccc(C(=O)Nc2ccc3c(c2)/C(=C2/Nc4ccccc4/C2=N\O)C(=O)N3)cc1`, the pIC50 [1] was 5.89 and the pIC50 [5] was 5.89.

`O=C(COc1cccc(Cl)c1)Nc1ccc2c(c1)/C(=C1/Nc3ccccc3/C1=N\O)C(=O)N2` showed a pIC50 [1] of 6.02 and a pIC50 [5] of 6.34.

With `O=C1Nc2ccc(NC(=O)c3ccc([N+](=O)[O-])cc3)cc2/C1=C1/Nc2ccccc2/C1=N\O` the pIC50 [1] was 5.89 and the pIC50 [5] was 6.30.

`O=C1Nc2ccc(NC(=O)c3cccc4ccccc34)cc2/C1=C1/Nc2ccccc2/C1=N\O` gave a pIC50 [1] of 5.82 and a pIC50 [5] of 6.15.

`O=C1Nc2ccc(NC(=O)C3CC3)cc2/C1=C1/Nc2ccccc2/C1=N\O` showed a pIC50 [1] of 8.10, a pIC50 [2] of 6.85 and a pIC50 [3] of 6.77. For the same molecule, the pIC50 [4] was 6.85 and the pIC50 [5] was 7.68.

`CC(C)(C)CC(=O)Nc1ccc2c(c1)/C(=C1/Nc3ccccc3/C1=N\O)C(=O)N2` gave a pIC50 [1] of 7.85, a pIC50 [2] of under 5.00 and a pIC50 [3] of under 5.00. It also gave a pIC50 [4] of under 5.00 and a pIC50 [5] of 7.62.

Work on `Cc1cc(Cl)cc2c1NC(=O)/C2=C1\Nc2ccccc2C1=O` yielded a pIC50 [1] of under 5.00.

With `CCCC(=O)Nc1ccc2c(c1)/C(=C1/Nc3ccccc3/C1=N\O)C(=O)N2` the pIC50 [6] was under 5.00, the pIC50 [1] was 8.00 and the pIC50 (Insulin receptor) was under 5.00. The pIC50 [7] was under 5.00, the pIC50 [2] was 6.29 and the pIC50 [3] was 6.23. It also gave a pIC50 [4] of 6.29, a pIC50 (Activated CDC42 kinase 1) of under 5.00 and a pIC50 [9] of under 5.00. For the same molecule, the pIC50 [10] was 5.10, the pIC50 [5] was 7.92 and the pIC50 [11] was 6.00.

In the case of `Cc1cc(C)c2c(c1)/C(=C1/Nc3ccccc3C1=O)C(=O)N2`, the pIC50 [1] was under 5.00.

In the case of `O=C1Nc2ccc([N+](=O)[O-])cc2/C1=C1/Nc2cccc(Br)c2C1=O`, the pIC50 [1] was under 5.00.

With `CC(C)(C)C(=O)Nc1ccc2c(c1)/C(=C1/Nc3ccccc3/C1=N\O)C(=O)N2` the pIC50 [6] was under 5.00, the pIC50 [1] was 7.68 and the pIC50 (Insulin receptor) was under 5.00. The pIC50 [7] was under 5.00, the pIC50 [2] was 6.15 and the pIC50 [3] was 6.08. For the same molecule, the pIC50 [4] was 6.15, the pIC50 (Activated CDC42 kinase 1) was under 5.00 and the pIC50 [9] was under 5.00. The pIC50 [10] was under 5.00, the pIC50 [5] was 7.49 and the pIC50 [11] was 5.55.

Work on `Nc1ccc2c(c1)/C(=C1/Nc3ccccc3C1=O)C(=O)N2` yielded a pIC50 [1] of 5.85.

Molecule `Nc1ccc2c(c1)/C(=C1/Nc3ccccc3/C1=N\O)C(=O)N2` has a pIC50 [1] of 6.60.

`O=C1Nc2ccccc2/C1=C1/Nc2ccccc2C1=O` [INDIRUBIN] was tested, and the pIC50 [1] was under 5.00.
